In patent US20190183843A9, “USE OF DIANHYDROGALACTITOL OR DERIVATIVES OR ANALOGS THEREOF FOR TREATMENT OF PEDIATRIC CENTRAL NERVOUS SYSTEM MALIGNANCIES” (DelMar Pharmaceuticals, Inc., priority 2015, published 2019):
Like-named read-outs stand apart in the source and are kept apart here.

What was measured:
[1] = biological target: glycogen synthase kinase-30 (GSK-30) (Homo sapiens, UniProt P49841); settings: cited from earlier work
[2] = test system: cisplatin-resistant 2780CP-16, OVCAR-10, Hey and OVCA-433 tumor models; test: MTT growth inhibition assay, 5-day drug exposure; format: cell-based, human; settings: 5-day exposure
Description: (§1) The analysis of cytotoxicity, depicted as IC50 (concentration inhibiting growth of cells by 50%) or as fraction of cells affected (Fa) at a specified concentration of drug, is based on the data generated from the MTT growth inhibition assay following a 5-day drug exposure period. The IC50 values were generated by fitting Fa values from a range of drug concentrations to a four-parameter logistic dose-response sigmoidal equation using the Graphpad Prism v.6 software. Resistance factors (for the ovarian panel) were calculated as the ratio of IC50 in the specific tumor model to the IC50 in A2780.
(§2) Cytotoxicity was determined against cisplatin-sensitive A2780 and cisplatin-resistant 2780CP-16, OVCAR-10, Hey and OVCA-433 tumor models with different status for p53 and mismatch repair (MMR) DNA repair system (A2780: p53 wild-type, MMR proficient; 2780CP-16: heterogenic p53 wt/V172Fmut, MMR deficient; OVCAR-10: p53 V172F mutant, MMR proficient; HEY: p53 P72R mutant, MMR proficient; OVCA-433: p53 P72R mutant, MMR proficient). IC50 for dianhydrogalactitol was about 0.5 μM in A2780 cells and in the 2-4 μM range for the cisplatin-resistant models. The activity (as IC50) of dianhydrogalactitol relative to cisplatin and oxaliplatin is shown as bar plots in FIG. 38. […] Oxaliplatin, in contrast, had good potencies against both cisplatin-sensitive (0.2 μM) and cisplatin-resistant cells (0.2-0.6 μM).

[3] = test system: MGMT-positive or -negative, MMR-proficient or -deficient cells; settings: cited from earlier work
[4] = cited from earlier work
[5] = test system: A2780 cells; test: MTT growth inhibition assay, 5-day drug exposure; format: cell-based, human; settings: 5-day exposure, cisplatin-sensitive A2780
Description: as §1, §2

glycogen synthase kinase-30 (GSK-30), sequence (P49841 whole entry): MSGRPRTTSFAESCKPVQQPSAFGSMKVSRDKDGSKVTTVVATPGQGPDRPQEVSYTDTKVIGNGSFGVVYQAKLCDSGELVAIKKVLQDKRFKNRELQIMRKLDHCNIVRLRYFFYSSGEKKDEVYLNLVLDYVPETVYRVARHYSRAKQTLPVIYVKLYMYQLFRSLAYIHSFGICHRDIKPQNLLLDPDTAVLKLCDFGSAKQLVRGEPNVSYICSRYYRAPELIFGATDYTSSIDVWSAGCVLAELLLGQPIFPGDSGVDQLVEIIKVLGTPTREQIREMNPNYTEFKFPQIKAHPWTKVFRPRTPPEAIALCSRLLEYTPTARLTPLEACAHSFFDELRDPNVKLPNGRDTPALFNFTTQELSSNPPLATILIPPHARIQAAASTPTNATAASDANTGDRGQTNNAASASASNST

CN1C(=O)/C(=C2/C(=O)Nc3ccccc32)c2ccccc21 [Meisoindigo]
concentration inhibiting GSK [1]: 5 to 50 nM

N.N.[Cl][Pt][Cl] [cisplatin]
IC50 [2]: 3 to 8 µM
sensitivity ([3]; MGMT Negative, MMR-Deficient): Resistant
sensitivity ([3]; MGMT Negative, MMR-Proficient): Sensitive
sensitivity ([3]; MGMT Positive, MMR-Deficient): Resistant
sensitivity ([3]; MGMT Positive, MMR-Proficient): Sensitive

O[C@H]([C@H](O)[C@@H](O)CBr)[C@H](O)CBr [dibromodulcitol]
absorption by the oral route [4]: rapid and fairly complete

O=C1[O][Pt]2([NH][C@@H]3CCCC[C@H]3[NH]2)[O]C1=O [oxaliplatin, reference compound]
IC50 [5]: 0.2 µM
IC50 [2]: 0.2 to 0.6 µM
